Assay results reported in US20090318376A1, “High Throughput Screening Method of Binding Inhibitor Between caspase3 and XIAP and Binding Inhibitor Screened Thereby” (Korea Research Institute of Bioscience and Biotechnology, priority 2006, published 2009).

Tests used:
[1] = molecular target: T1, binding of caspase3 and xIAP (Homo sapiens, UniProt P98170); test: pull down assay using tagged MBP; conditions: chromomycin increased from 50 μM to 200 μM; MBP resin, SDS PAGE; FIG. 4
T1 construct: made in house; host or cells: E. coli BL21
T1 sequence (P98170 whole entry): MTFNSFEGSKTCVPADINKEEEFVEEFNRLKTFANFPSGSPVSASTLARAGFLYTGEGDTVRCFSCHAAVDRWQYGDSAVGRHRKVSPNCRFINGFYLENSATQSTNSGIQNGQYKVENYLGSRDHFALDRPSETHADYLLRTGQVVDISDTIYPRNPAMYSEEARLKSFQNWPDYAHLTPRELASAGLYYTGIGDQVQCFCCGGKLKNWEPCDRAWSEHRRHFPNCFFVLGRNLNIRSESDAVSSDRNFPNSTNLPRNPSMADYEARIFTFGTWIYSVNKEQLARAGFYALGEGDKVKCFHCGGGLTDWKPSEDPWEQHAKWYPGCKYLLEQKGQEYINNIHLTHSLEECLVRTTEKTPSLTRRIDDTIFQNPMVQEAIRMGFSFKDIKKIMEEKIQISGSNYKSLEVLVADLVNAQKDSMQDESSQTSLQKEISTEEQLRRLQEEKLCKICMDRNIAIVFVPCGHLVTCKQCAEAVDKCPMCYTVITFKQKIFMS
Procedure: In order to examine whether chromomycin, screened in the example 2, is activated by the reaction of caspase3 and xIAP, pull down assay using tagged MBP (Maltose Binding Protein) was performed. After xIAP and chromomyicin were added to MBP resin and allowed to react on ice for 2 hours, the resulting mixture was added with caspase3 and allowed to react for about 3 hours, and then washed with PBS buffer solution to load onto 10% SDS PAGE, thus examining the reactant (FIG. 4).

[2] = molecular target: T2, binding between caspase3 and xIAP (Homo sapiens, UniProt P98170); test: protein chip (CI-chip) SPR imaging screening of inhibitors of interaction between caspase3 and xIAP; conditions: within the range from 50 to 400 μM; FIG. 3
T2 construct: made in house; host or cells: E. coli BL21
T2 sequence (P98170 whole entry): as above
Description: Whether the obtained proteins bind to the gold chip having L-glutathione on the surface thereof, was pre-experimented. After a bacteria cell extract containing 20% glycerol, in which GST-tag-fused cas3 (29) obtained in Example 1-1 has been over-expressed, was dispersed in 384 microwell plate, it was spotted on the gold chip having L-glutathione on the surface thereof with a pin having a diameter of 335 μm under a constant humidity of 75% using automatic robotic arrayer(proteogen, CM-1000), and then subjected to RT shaking incubation for 3 hours, thus constructing Cl-chip having gold chip as a substrate.
Inhibitors of interaction between caspase3 and xIAP were screened using the protein chip based on the gold chip prepared in example 1. 920 microorganism-derived samples, which was purely isolated or partially purified, were reacted with 15 μl solution (3.75 μl of more than 50% glycerol; 3 μl of material dissolved in DMSO at a concentration of less than 10 mg/ml; 7.5 μl of xIAP dissolved in PBS at a concentration of more than 1 mg/ml; 0.75 μl of PBS buffer) at 4° C. for 2 hours to apply to the protein chip. Inhibitory activity was analyzed using SPR imaging as the concentration of protein in solution was increased (FIG. 3).

[3] = system: colorectal cancer cell line HCT116; test: inhibition of proliferation of cancer cell lines (WST-8); format: cell-based; conditions: Homo sapiens, HCT-116, WST-8, over 24 hours treatment, read-out: IC 50 (proliferation)
Procedure: (§1) To examine inhibition of proliferation of the cell lines, the cancer cell lines HCT 116 (Mecoy's 5A medium), SW620 (RPMI 1640) and MDA-MB-231 (RPMI 1640) were cultured to disperse in a 96 well plate. SW620 and HCT116 were innoculated at a concentration of 7,000 cells/100 μl, and MDA-MB-231 was innoculated at a concentration of 5,000 cells/100 μl, respectively, and cultured overnight, followed by an additional reaction of over 24 hours after treating with 1 μl chromomycin prepared according to the concentration. Next, the resulting cells were added with 10 μl of WST-8, counted with an ELISA reader at 450 nm after 2 hours and calculated as a percentage of comparative control added only with DMSO. Inhibitory concentration (IC50), with respect to proliferation of cell lines MDA-MB -231, HCT116, SW620, was measured within the concentration range from 0 to 1 µg/ml by dissolving chromomycin in DMSO (Table 1).

[4] = system: breast cancer cell line MDA-MB-231; test: as above; format: cell-based; conditions: Homo sapiens, WST-8, over 24 hours treatment, read-out: IC 50 (proliferation)
Procedure: as §1

[5] = system: colorectal cancer cell line SW620; test: as above; format: cell-based; conditions: Homo sapiens, SW-620, WST-8, over 24 hours treatment, read-out: IC 50 (proliferation)
Procedure: as §1

Compound: COC1C(O)CC(OC2CC(Oc3cc4cc5c(c(O)c4c(O)c3C)C(=O)[C@@H](OC3CC(OC4CC(OC6CC(C)(O)C(OC(C)=O)C(C)O6)C(O)C(C)O4)C(O)C(C)O3)[C@H]([C@H](OC)C(=O)[C@@H](O)[C@@H](C)O)C5)OC(C)C2OC(C)=O)OC1C (some centres unmarked) [Chromomycin]
- resulting reactant of xIAP (MX) and caspase3 (Cas3) in pull down assay [1]: reduced
- inhibition reaction in the protein chip (SPR imaging) [2]: constant inhibition reaction concentration-dependently
- IC50 [3]: 6.7 nM
- IC50 [4]: 8.4 nM
- IC50 [5]: 80 nM
